Reference: US20080051330A1, “Inhibitors of serine protease activity, methods and compositions for treatment of herpes viruses” (priority 1999, published 2008)
* marks the point of attachment. Cbz = O=C(OCc1ccccc1)*; CHN2 = [N-]=[N+]=C*

B1: Cystatin C: human cysteine proteinase inhibitor present in extracellular fluids (protein, UniProt P01034 27-146, looked up)
Cystatin-C: SSPGKPPRLVGGPMDASVEEEGVRRALDFAVGEYNKASNDMYHSRALQVVRARKQIVAGVNYFLDVELGRTTCTKTQPNLDNCPFHDQPHLKRKAFCSFQIYAVPWQGTMTLSKSTCQDA

Assays:
[1] = test system: Herpes simplex virus-2, strain MS; format: in vivo, SCID mouse; details: SCID mice; for survival rate: HSV-2 at 1000 times LD50 on abraded skin, topical, three times daily for 7 days from 2 hours after inoculation, compound 100 mg/kg, untreated control 20%
[2] = test system: CMV; assay: Activity against CMV in vitro: plaque reduction assay in human lung fibroblast cells; format: cell-based; details: HLF cells, plaques counted day 6-10 post-infection
[3] = test system: HSV; assay: Activity against HSV in vitro: ELISA with rabbit anti-HSV antibody in infected human lung fibroblast cells; format: cell-based, HSV-1 and HSV-2; details: HLF cells, virus absorbed in presence or absence of AAT
[4] = test system: HSV; details: at molar concentration lower than that of acyclovir; cited from earlier work

Molecule | survival rate [1] | reduction in number of CMV plaques [2] | percentage of mice surviving, in words, relative to vehicle control ([1]; HSV-2 at 1000 times LD50) | effect on HSV by ELISA, optical density expressed as percent of control [3] | inhibitory effect on HSV replication [4]
Nc1nc2c(ncn2COCCO)c(=O)[nH]1 [acyclovir, reference compound] | about 60% | – | – | – | –
AAT: glycoprotein of MW 51,000 with 394 amino acids and 3 oligosaccharide side chains; serine protease inhibitor | about 60% | significant inhibitory effect | significantly greater | significant inhibitory effect | –
Cbz-Leu-Val-Gly-CHN2 [reference compound] | – | – | – | – | strong inhibitory effects
B1 | – | – | – | – | strong inhibitory effects
